Legend:
Format in all cases: cell-based
[1] = system: Fusobacterium nucleatum; assay: MIC (minimum inhibitory concentration) study, 96 well microtiter plates; conditions: F. nucleatum, 48 hours at 37° C., turbidity at 660 nm
Method: (§1) In vitro tests were conducted with a gram positive supragingival plaque bacterium, Streptococcus mutans. In addition, two subgingival plaque bacteria associated with oral malodor were tested, Porphyromonas gingivalis and Fusobacterium nucleatum. The MIC (Minimum Inhibitory Concentrations) study protocol is as follows. Chlorhexidine was used as a positive control and sterile water was used as a negative control. Cardamom oil was suspended in 10% methanol with 3.8% Tween 80. […] 96 well microtiter plates were used for this study. Each well contained 5×10^5 colony forming units/ml of bacteria, serially diluted agents and bacterial growth medium. All bacterial cultures were incubated at 37° C. and stationary. Bacterial growth was estimated spectrophotometrically at 660 nm, after 48 hours. The MIC for each test bacteria was defined as the minimum concentration of test compound limiting turbidity to […].

[2] = system: Porphyromonas gingivalis; assay: as above; conditions: P. gingivalis, 48 hours at 37° C., turbidity at 660 nm
Method: as §1

[3] = system: Fusobacterium nucleatum; assay: MBC (minimum bactericidal concentration) determination, plating on blood agar; conditions: F. nucleatum, lowest concentration killing at least 99.9% of initial inoculum, plates 48 hours at 37° C.
Method: (§2) The MBC (Minimum bactericidal concentrations) were determined using the 96 well microtiter plate serial dilutions as described above for MIC studies. Serial dilution of cultures in wells showing no visible growth were performed and 10 microliters of culture were plated in triplicate on blood agar plates. Viable colonies were scored after incubation of the plates for 48 hours at 37° C. For each test bacterium, the number of CFU/ml were determined in the initial inoculum. The MBC was defined as the lowest concentration of a test compound that killed at least 99.9% of the cells present in the initial inoculum.

[4] = system: Porphyromonas gingivalis; assay: as above; conditions: P. gingivalis, lowest concentration killing at least 99.9% of initial inoculum, plates 48 hours at 37° C.
Method: as §2

[H]/N=C(\N/C(=N/[H])NCCCCCCNC(=N)NC(=N)Nc1ccc(Cl)cc1)Nc1ccc(Cl)cc1 [Cholorhexidine, Chlorhexidine]
1.25 µg/mL: MIC [1] | MIC [2] | MBC [3] | MBC [4]
